Legend:
[1] = molecular target: T1, Human IBAT (Homo sapiens, UniProt Q12908); assay: IBAT (h/m) assay, human IBAT-overexpressing cells, 3H-taurocholic acid uptake; assay type: cell-based; conditions: 0.25 μM 3H-taurocholic acid and 5 μM cold taurocholic acid, 20 minutes, read-out: hIBAT IC50
T1 construct: expressed in transfected cells; Puromycin-selected
T1 sequence (Q12908 1-348): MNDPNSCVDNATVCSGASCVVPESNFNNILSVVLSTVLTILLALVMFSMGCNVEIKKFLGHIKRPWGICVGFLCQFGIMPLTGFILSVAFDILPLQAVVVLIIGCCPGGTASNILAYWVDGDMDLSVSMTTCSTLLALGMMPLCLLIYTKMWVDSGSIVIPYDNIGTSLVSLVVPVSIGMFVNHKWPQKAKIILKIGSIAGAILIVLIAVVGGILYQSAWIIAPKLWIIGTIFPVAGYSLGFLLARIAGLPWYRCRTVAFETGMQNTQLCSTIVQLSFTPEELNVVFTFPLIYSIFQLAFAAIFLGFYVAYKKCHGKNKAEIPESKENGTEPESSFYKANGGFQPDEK
Protocol: IBAT (h/m) Assay Protocol
10,000 cells (Human or Mouse IBAT-overexpressing cells) were seeded in 96-wells plate (Corning CLS3809) in 200 μL MEM-alpha medium (Gibco 12571-063) supplemented with 10% FBS (Gibco 10438026) containing Puromycin (Gibco A1113803) (10 μg/mL) and incubated at 37° C. in 5% CO2 for 48 hours. After incubation, media was decanted from the wells and cells were washed two times with 300 μL of basal MEM-alpha medium (FBS-free). After decanting basal MEM-alpha medium each time, plates were tapped against paper towel to ensure maximum removal of residual media. Test inhibitor dilutions (highest test concentration being 10 μM, 3-fold serial dilution, 10 points) prepared in DMSO (Sigma D2650) were added in incubation mix (maintaining 0.2% final DMSO concentration) containing 0.25 μM 3H-taurocholic acid (ARC ART-1368) and 5 μM of cold taurocholic acid (Sigma T4009). 50 μL of incubation mix containing test inhibitors was then added to the wells (in duplicate) and the plates were incubated for 20 minutes in a CO2 incubator at 37° C. After incubation, the reaction was stopped by keeping the plates on ice water mix for 2-3 minutes and then the incubation mix was aspirated completely from the wells. The wells were washed two times with 250 μL of chilled unlabelled 1 mM taurocholic acid dissolved in HEPES (Gibco 15630080)-buffered (10 mM) HBSS (Gibco 14175079) (pH 7.4). The plates were tapped against a paper towel after every wash to ensure maximum removal of blocking buffer.
100 μL of MicroScint-20 (PerkinElmer 6013621) was added to the wells and kept overnight at room temperature before reading the plates in TopCount NXT™ Microplate Scintillation and Luminescence Counter from PerkinElmer under 3H Test protocol (set at 120 seconds reading time per well).
(§1) Preparation of Test Compound Dilutions
(§2) All test compounds were provided in powder form at room temperature. 10 mM DMSO stocks of the test compounds were prepared, aliquoted and stored at −20° C. From the 10 mM DMSO stock of the compounds, a 3-fold serial dilution in DMSO was prepared to get a total of 10 dilutions of the test compounds. 0.5 μL of this dilution in DMSO was added to 250 μL of FBS-free basal media containing 3H-taurocholic acid and cold taurocholic acid to prepare the incubation mixture.

[2] = molecular target: T2, Human LBAT (Homo sapiens, UniProt Q14973); assay: LBAT (h/m) assay, human LBAT-overexpressing cells, 3H-taurocholic acid uptake; assay type: cell-based; conditions: 0.3 μM 3H-taurocholic acid and 7.5 μM cold taurocholic acid, 20 minutes, read-out: hLBAT IC50
T2 construct: expressed in transfected cells; Geneticin-selected
T2 sequence (Q14973 1-349): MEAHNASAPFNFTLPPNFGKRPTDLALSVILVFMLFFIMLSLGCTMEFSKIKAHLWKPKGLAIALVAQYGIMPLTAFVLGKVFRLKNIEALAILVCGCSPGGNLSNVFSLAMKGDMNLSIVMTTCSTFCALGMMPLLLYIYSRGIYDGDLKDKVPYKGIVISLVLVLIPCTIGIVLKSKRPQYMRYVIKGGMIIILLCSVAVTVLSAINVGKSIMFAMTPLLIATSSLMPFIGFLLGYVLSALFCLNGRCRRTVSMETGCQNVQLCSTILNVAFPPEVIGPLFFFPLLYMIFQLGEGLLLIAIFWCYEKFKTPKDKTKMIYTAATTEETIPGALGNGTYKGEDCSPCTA
Protocol: LBAT (h/m) Assay Protocol
20,000 cells (Human or Mouse LBAT-overexpressing cells) were seeded in 96-wells plate (Corning CLS3809) in 100 μL MEM-alpha medium (Gibco 12571-063) supplemented with 10% FBS (Gibco 10438026) containing Geneticin (Gibco 10131-027) (1 mg/mL) and incubated at 37° C. in 5% CO2 for 24 hours. After incubation, media was decanted from the wells and cells were washed two times with 300 μL of basal MEM-alpha medium (FBS-free). After decanting basal MEM-alpha medium each time, plates were tapped against paper towel to ensure maximum removal of residual media.
For human LBAT, incubation mix was prepared by adding test inhibitor dilutions (3-fold serial dilution in DMSO (Sigma D2650), 10 points) in MEM-alpha (without FBS) containing 0.3 μM 3H-taurocholic acid (ARC ART-1368) and 7.5 μM cold taurocholic acid (Sigma T4009) (maintaining 0.2% final DMSO concentration). For mouse LBAT, incubation mix was prepared by adding test inhibitor dilutions (3-fold serial dilution in DMSO, 10 points) in MEM-alpha (without FBS) containing 0.3 μM 3H-taurocholic acid and 25 μM cold taurocholic acid maintaining 0.2% final DMSO concentration). 50 μL of incubation mix containing test inhibitors was then added to the wells (in duplicate) and the plates were incubated for 20 minutes in a CO2 incubator at 37° C. After incubation, the reaction was stopped by keeping the plates on ice water mix for 2-3 minutes and then the incubation mix was aspirated completely from the wells. The wells were washed two times with 250 μL of chilled unlabelled 1 mM taurocholic acid dissolved in HEPES (Gibco 15630080)-buffered (10 mM) HBSS (Gibco 14175079) (pH 7.4). The plates were tapped against a paper towel after every wash to ensure maximum removal of blocking buffer. 100 μL of MicroScint-20 (PerkinElmer 6013621) was added to the wells and kept overnight at room temperature before reading the plates in TopCount NXT™ Microplate Scintillation and Luminescence Counter from PerkinElmer under 3H Test protocol (set at 120 seconds reading time per well, with normal plate orientation).
as §1, §2

| Compound | IC50 [1] [nM] | IC50 [2] [nM] |
| --- | --- | --- |
| CCCCC1(CC)CN(c2ccc(F)cc2)c2cc(SC)c(OCC(O)C(=O)O)cc2S(=O)(=O)C1 (single isomer, unassigned) [42, diastereomer 4] | 1 | 689 |
| CCCCC1(C)CN(c2ccccc2)c2cc(SC)c(OCC(C)(O)C(=O)O)cc2S(=O)(=O)C1 (single isomer, unassigned) [33, diastereomer 2] | 45 | 1410 |
| CCCCC1(CC)CN(c2ccccc2)c2cc(Cl)c(OC(C)CC(=O)O)cc2S(=O)(=O)C1 (single isomer, unassigned) [30, diastereomers 1 and 2] | 36 | 247 |
| CCCCC1(CC)CN(c2ccccc2)c2cc(Br)c(OCCC(=O)O)cc2S(=O)(=O)C1 (single isomer, unassigned) [Example 3, 3-((7-bromo-3-butyl-3-ethyl-1,1-dioxido-5-phenyl-2,3,4,5-tetrahydro-1,5-benzothiazepin-8-yl)oxy)propanoic acid] | 241 | 837 |
| CCCCC1(C)CN(c2ccccc2)c2cc(SC)c(OC[C@H](O)C(=O)O)cc2S(=O)(=O)C1 (single isomer, unassigned) [Example 32, 3-((3-butyl-3-methyl-7-(methylthio)-1,1-dioxido-5-phenyl-2,3,4,5-tetrahydro-1,5-benzothiazepin-8-yl)oxy)-2-hydroxypropanoic acid] | 8 | 2260 |
| CCCCC1(CC)CN(c2ccccc2)c2cc(SC)c(OCC(N)C(=O)O)cc2S(=O)(=O)C1 (stereo not drawn) [Example 28, O-(3-butyl-3-ethyl-7-(methylthio)-1,1-dioxido-5-phenyl-2,3,4,5-tetrahydro-1,5-benzothiazepin-8-yl)serine] | 45 | – |
| CCCCC1(C)CN(c2ccccc2)c2cc(SC)c(OCC(C)(O)C(=O)O)cc2S(=O)(=O)C1 (single isomer, unassigned) [33, diastereomer 1] | 123 | 5940 |
| CCCCC1(CC)CN(c2ccccc2)c2cc(Cl)c(OC(C)CC(=O)O)cc2S(=O)(=O)C1 (single isomer, unassigned) [30, diastereomer 2] | 52 | 322 |
| CCCCC1(C)CN(c2ccccc2)c2cc(SC)c(OCC(C)(O)C(=O)O)cc2S(=O)(=O)C1 (single isomer, unassigned) [33, diastereomer 4] | – | 575 |
| CCCCC1(CC)CN(c2ccccc2)c2cc(SC)c(OCCC(=O)O)cc2S(=O)(=O)C1 (racemic) [Example 12, 3-((3-Butyl-3-ethyl-7-(methylthio)-1,1-dioxido-5-phenyl-2,3,4,5-tetrahydro-1,5-benzothiazepin-8-yl)oxy)propanoic acid] | 4 | 669 |
| CCCCC1(CC)CN(c2ccccc2)c2cc(Cl)c(OC(C)CC(=O)O)cc2S(=O)(=O)C1 (single isomer, unassigned) [30, diastereomers 3 and 4] | 263 | 818 |
| CCCCC1(CC)CN(c2ccccc2)c2cc(SC)c(OCC(O)C(=O)O)cc2S(=O)(=O)C1 (single isomer, unassigned) [40, diastereomer 1] | 241 | 1370 |
| CCCCC1(CC)CN(c2ccc(F)cc2)c2cc(SC)c(OCC(O)C(=O)O)cc2S(=O)(=O)C1 (single isomer, unassigned) [42, diastereomer 3] | 0.5 | 892 |
| CCCCC1(CC)CN(c2ccccc2)c2cc(SC)c(OCC(O)C(=O)O)cc2S(=O)(=O)C1 (single isomer, unassigned) [40, diastereomer 2] | 24 | 513 |
| CCCCC1(CC)CN(c2ccc(F)cc2)c2cc(SC)c(OCC(O)C(=O)O)cc2S(=O)(=O)C1 (single isomer, unassigned) [42, diastereomer 2] | 36 | 2310 |
| CCCCC1(C)CN(c2ccccc2)c2cc(SC)c(OCC(O)C(=O)O)cc2S(=O)(=O)C1 (stereo not drawn) [Example 31, 3-((3-butyl-3-methyl-7-(methylthio)-1,1-dioxido-5-phenyl-2,3,4,5-tetrahydro-1,5-benzothiazepin-8-yl)oxy)-2-hydroxypropanoic acid] | 10 | 359 |
| CCCCC1(CC)CN(c2ccccc2)c2cc(N(C)C)c(OCCC(=O)O)cc2S(=O)(=O)C1 (single isomer, unassigned) [Example 18, 3-((3-butyl-7-(dimethylamino)-3-ethyl-1,1-dioxido-5-phenyl-2,3,4,5-tetrahydro-1,5-benzothiazepin-8-yl)oxy)propanoic acid] | 52 | – |
| CCCCC1(C)CN(c2ccc(F)cc2)c2cc(SC)c(OCCC(=O)O)cc2S(=O)(=O)C1 (racemic) [Example 49, 3-((3-Butyl-5-(4-fluorophenyl)-3-methyl-7-(methylthio)-1,1-dioxido-2,3,4,5-tetrahydro-1,5-benzothiazepin-8-yl)oxy)propanoic acid] | 10 | – |
| CCCCC1(CC)CN(c2ccccc2)c2cc(SC)c(OCC(N)C(=O)O)cc2S(=O)(=O)C1 (single isomer, unassigned) [36, diastereomer 2] | 5 | – |
| CCCC1(CC)CN(c2ccccc2)c2cc(SC)c(OCCC(=O)O)cc2S(=O)(=O)C1 (stereo not drawn) [Example 27, 3-((3-ethyl-7-(methylthio)-1,1-dioxido-5-phenyl-3-propyl-2,3,4,5-tetrahydro-1,5-benzothiazepin-8-yl)oxy)propanoic acid] | 62 | – |
| CCCCC1(CC)CN(c2ccccc2)c2cc(SC)c(OCC(N)C(=O)O)cc2S(=O)(=O)C1 (single isomer, unassigned) [36, diastereomer 1] | 76 | – |
| CCCCC1(C)CN(c2ccc(F)cc2)c2cc(SC)c(OCC(O)C(=O)O)cc2S(=O)(=O)C1 (stereo not drawn) [Example 51, 3-((3-Butyl-5-(4-fluorophenyl)-3-methyl-7-(methylthio)-1,1-dioxido-2,3,4,5-tetrahydro-1,5-benzothiazepin-8-yl)oxy)-2-hydroxypropanoic acid] | 5 | – |

Source: US11773071B2, “Benzothiazepine compounds and their use as bile acid modulators” (Albireo AB, priority 2019, dated 2023)
